The text below walks through data of patent publication US4705900A, “Insecticidal alkenes” (Imperial Chemical Industries PLC, priority 1985, dated 1987).

The test system of series [1] is Tetranychus urticae. Kind of series: mortality of red spider mites (TU), contact test. It is filed as in vivo, Tetranychus urticae (red spider mites - adult). Particulars: 500 ppm, French bean leaf, 3 days; for mortality at 500 ppm: Tetranychus urticae, 72 h, read-out: grading of mortality, TU. As to the method:
(§1) The activity of the Product was determined using a variety of insect pests. The Product was used in the form of liquid preparations containing 500 or 100 parts per million (ppm) by weight of the Product. The preparations were made by dissolving the Product in acetone and diluting the solutions with water containing 0.01% by weight of a wetting agent sold under the trade name "LISSAPOL" NX until the liquid preparations contained the required concentration of the Product. "Lissapol" is a Registered Trade Mark.
(§2) The test procedure adopted with regard to each pest was basically the same and comprised supporting a number of the pests on a medium which was usually a host plant or a foodstuff on which the pests feed, and treating either or both the pests and the medium with the preparations. The mortality of the pests was then assessed at periods usually varying from one to three days after the treatment.
(§3) The results of the tests are given in Table IV for each of the Products, at the rate in parts per million given in the second column as a grading of mortality designated as A, B or C wherein A indicates 80-100% mortality or knockdown, B indicates 50-79% mortality or knockdown and C indicates less than 50% mortality or knockdown.
(§4) In Table IV the pest organism used is designated by a letter code and the pests species, the support medium or food, and the type and duration of test is given in Table III.
(red spider mites - adult)

The test system of series [2] is Myzus persicae. Kind of series: mortality of aphids (MP), contact test. It is filed as in vivo, Myzus persicae (aphids). The note with it: 500 ppm, leaf, 2 days; for grading of mortality, MP: 2880 min; for mortality at 500 ppm: Myzus persicae, 48 h, read-out: grading of mortality, MP. The method, then:
as §1, §2, §3, §4

Series [3] deals with Nilaparvata lugens. Put plainly: mortality of green leaf hopper (NL), contact test. It is filed as in vivo, Nilaparvata lugens (brown planthopper). The note with it: 500 ppm, cabbage leaf, 6 days; for grading of mortality, NL: 8640 min; for mortality at 500 ppm: Nilaparvata lugens, in Brassica oleracea, 144 h, read-out: grading of mortality, NL. As to the method:
as §1, §2, §3, §4

Series [4] concerns Musca domestica. Kind of series: knockdown of houseflies (MD/KD). It is filed as in vivo, Musca domestica (houseflies - adults). The note with it: 500 ppm, cotton wool/sugar, 4 hours; for pest or weed control at 500 ppm: Musca domestica, read-out: grading of knockdown, MD/KD. The method, then:
as §1, §2
In case of the species Musca domestica (housefly), additional tests to determine the knockdown effect of the compounds were performed.
as §3, §4

Series [5] relates to Musca domestica. Kind of series: mortality of houseflies (MD), contact test. It is filed as in vivo, Musca domestica (houseflies - adults). Particulars: 500 ppm, cotton wool/sugar, 1 day; for mortality at 500 ppm: Musca domestica, 24 h, read-out: grading of mortality, MD. The method, then: as §1, §2, §3, §4
The subject of series [6] is Blattella germanica. Put plainly: mortality of cockroach nymphs (BG), residual test. It is filed as in vivo, Blattella germanica (cockroach nymphs). The note with it: 500 ppm, plastic pot, 3 days; for mortality at 500 ppm: Blattella germanica, 72 h, read-out: grading of mortality, BG. The method, then:
as §1, §2, §3, §4

Series [7] deals with Heliothis viriscens. Kind of series: whole plant or invertebrate. It is filed as in vivo, Heliothis viriscens (tobacco budworm). Particulars: in Gossypium hirsutum, 72 h, read-out: grading of mortality, HV. The method, then:
as §1, §2, §3, §4

Series [8] has as its system Chilo partellurs. Kind of series: mortality of stem borers (CP), residual test. It is filed as in vivo, Chilo partellurs (Stem borers). The note with it: 500 ppm, oil seed rape leaf, 3 days; for mortality at 500 ppm: Chilo, 72 h, read-out: grading of mortality, CP. The method, then:
as §1, §2, §3, §4

The subject of series [9] is Diabrotica balteata. Put plainly: mortality of rootworm larvae (DB), residual test. It is filed as in vivo, Diabrotica balteata (rootworm larvae). Particulars: 500 ppm, filter paper/maize seed, 3 days; for grading of mortality, DB: 4320 min; for mortality at 500 ppm: Diabrotica balteata, in Zea mays, 72 h, read-out: grading of mortality, DB. The method, then: as §1, §2, §3, §4

Consider `CC(C)(C=Cc1ccc(Cl)cc1)COCc1cccc(Oc2ccccc2)c1` [Compound 1, 3,3-Dimethyl-1-(4-chlorophenyl)-4-(3-phenoxybenzyloxy)but-1-ene], for which the mortality (commonly the percentage killed) at 500 ppm was 50 to 79% in series [1]; 50 to 79% in [5]; < 50% in series [6]; 80 to 100% in series [7]; 80 to 100% in series [8]. Besides, the “grading of mortality, MP” value in series [2] is on record as “C (C indicates less than 50% mortality or knockdown)”. Besides, the “grading of mortality, NL” value in [3] is given as “B (B indicates 50-79% mortality or knockdown)”. Moreover, in series [4], the pest or weed control at 500 ppm was in the range of 80 to 100%. In series [9], the “grading of mortality, DB” value is reported as “C (C indicates less than 50% mortality or knockdown)”.
Regarding `CC(C)(/C=C\c1ccc(Cl)cc1)COCc1cccc(Oc2ccccc2)c1` [Compound 2, 3,3-Dimethyl-1-(4-chlorophenyl)-4-(3-phenoxybenzyloxy)but-1-ene], the mortality at 500 ppm in series [1], in series [2], in series [3], in series [5], in [6] and in series [7] was < 50% each time. Also, the values for the mortality at 500 ppm in series [8] and in [9] were 50 to 79% and < 50%, respectively. Moreover, the pest or weed control at 500 ppm in series [4] was < 50%.
In the case of `CCOc1ccc(/C=C\C(C)(C)COCc2cccc(Oc3ccccc3)c2)cc1` [Compound 3, 3,3-Dimethyl-1-(4-ethoxyphenyl)-4-(3-phenoxybenzyloxy)but-1-ene], the mortality at 500 ppm in series [1], in series [2], in series [3], in series [5], in [6] and in [7] was < 50% each time. Also, the mortality at 500 ppm in [8] and in [9] was < 50% each time. In series [4], the pest or weed control at 500 ppm was < 50%.
In the case of `CCOc1ccc(/C=C/C(C)(C)COCc2cccc(Oc3ccccc3)c2)cc1` [Compound 4, 3,3-Dimethyl-1-(4-ethoxyphenyl)-4-(3-phenoxybenzyloxy)but-1-ene], the mortality at 500 ppm in series [1], in [2], in series [3], in series [5], in series [6] and in series [7] was < 50% throughout. Besides, the mortality at 500 ppm in series [8] and in [9] was < 50% throughout. Also, the pest or weed control at 500 ppm in series [4] was < 50%.
Consider `CC(C)(/C=C\c1ccc(F)cc1)COCc1ccc(F)c(Oc2ccccc2)c1` [Compound 5, 3,3-dimethyl-1-(4-fluorophenyl)-4-(4-fluoro-3-phenoxybenzyloxy)but-1-ene], for which the mortality at 500 ppm in series [1], in series [2], in series [3], in series [5], in [6] and in series [7] was < 50% throughout. Besides, the mortality at 500 ppm in series [8] and in series [9] was < 50% each time. For the same compound, the pest or weed control at 500 ppm in series [4] was < 50%.
For the compound `CC(C)(/C=C/c1ccc(F)cc1)COCc1ccc(F)c(Oc2ccccc2)c1` [Compound 6, 3,3-dimethyl-1-(4-fluorophenyl)-4-(4-fluoro-3-phenoxybenzyloxy)but-1-ene], the mortality at 500 ppm in series [1] was 50 to 79%; in [2], 80 to 100%; in [3], 80 to 100%; in series [5] it was 80 to 100%; in series [6], 80 to 100%; in series [7], 80 to 100%. In addition, the mortality at 500 ppm in series [8] and in [9] was 80 to 100% throughout. In addition, the pest or weed control at 500 ppm in series [4] was in the range of 80 to 100%.
For `CC(C)(C=Cc1ccc(Cl)cc1)COCc1ccc(F)c(Oc2ccccc2)c1` [Compound 7, 3,3-Dimethyl-1-(4-chlorophenyl)-4-(4-fluoro-3-phenoxybenzyloxy)but-1-ene], the mortality at 500 ppm in [1] was < 50%; in series [2] it was 80 to 100%; in [3] it was < 50%; in series [5], 80 to 100%; in series [6] it was < 50%; in [7] it was 80 to 100%. The mortality at 500 ppm in series [8] and in [9] was 80 to 100% throughout. Besides, the pest or weed control at 500 ppm in [4] lay within 80 to 100%.
Take `Cc1ccc(C=CC(C)(C)COCc2ccc(F)c(Oc3ccccc3)c2)cc1` [Compound 8, 3,3-Dimethyl-1-(4-methylphenyl)-4-(4-fluoro-3-phenoxybenzyloxy)but-1-ene]: the mortality at 500 ppm in series [1] is < 50%; in [2] it was 80 to 100%; in [3], 80 to 100%; in series [5], 80 to 100%; in [6], 50 to 79%; in series [7] it was 80 to 100%. Besides, the mortality at 500 ppm in series [8] and in series [9] was 80 to 100% each time. In addition, the pest or weed control at 500 ppm in series [4] lay in the range of 80 to 100%.
Take `CC(C)(C=Cc1ccccc1)COCc1ccc(F)c(Oc2ccccc2)c1` [Compound 9, 3,3-Dimethyl-1-phenyl-4-(4-fluoro-3-phenoxybenzyloxy)but-1-ene]: the mortality at 500 ppm in [1] is < 50%; in series [2], 80 to 100%; in series [3], 80 to 100%; in [5] it was 80 to 100%; in series [6] it was < 50%; in [7], 80 to 100%. The mortality at 500 ppm in [8] and in [9] was 80 to 100% in each case. For the same compound, in series [4], the pest or weed control at 500 ppm is 80 to 100%.
For `CCOc1ccc(/C=C/C(C)(C)COCc2ccc(F)c(Oc3ccccc3)c2)cc1` [Compound 10, 3,3-Dimethyl-1-(4-ethoxyphenyl)-4-(4-fluoro-3-phenoxybenzyloxy)but-1-ene], the mortality at 500 ppm was < 50% in [1]; 50 to 79% in [2]; < 50% in [3]; 50 to 79% in series [5]; < 50% in [6]; 80 to 100% in series [7]. Besides, the mortality at 500 ppm in series [8] was 80 to 100%; in series [9] it was < 50%. In series [4], the pest or weed control at 500 ppm was 50 to 79%.
As to `CC(C)(C=Cc1ccc(Cl)cc1)COCc1cccc(Oc2ccccc2)c1` [Compound 13, 3,3-Dimethyl-1-(4-chlorophenyl)-4-(3-phenoxybenzyloxy)but-1-ene], in [1], the “grading of mortality, TU” value is on record as “B (B indicates 50-79% mortality or knockdown)”. Also, in [2], the “grading of mortality, MP” value is “A (A indicates 80-100% mortality or knockdown)”. Besides, the “grading of mortality, NL” value in [3] is listed as “A (A indicates 80-100% mortality or knockdown)”. Moreover, the “grading of knockdown, MD/KD” value in series [4] is recorded as “A (A indicates 80-100% mortality or knockdown)”. Also, the “grading of mortality, MD” value in series [5] is “B (B indicates 50-79% mortality or knockdown)”. For the same compound, the “grading of mortality, BG” value in series [6] is given as “C (C indicates less than 50% mortality or knockdown)”. In addition, the “grading of mortality, CP” value in [8] is on record as “A (A indicates 80-100% mortality or knockdown)”. The “grading of mortality, DB” value in series [9] was “A (A indicates 80-100% mortality or knockdown)”.
In the case of `CCC(C)(/C=C/c1ccc(Cl)cc1)COCc1cccc(Oc2ccccc2)c1` (stereo not shown) [Compound 25, 3-Ethyl-3-methyl-1-(4-chlorophenyl)-4-(3-phenoxybenzyloxy)but-1-ene], the mortality at 500 ppm was < 50% in series [1]; 50 to 79% in series [2]; 50 to 79% in [3]; 50 to 79% in [5]; 80 to 100% in series [6]; 80 to 100% in series [7]. Further, the mortality at 500 ppm in series [9] was < 50%. Besides, the pest or weed control at 500 ppm in series [4] was < 50%.
